The text below walks through data of patent US7868005B2, “Pyrazinyl substituted piperazine-piperidines with CXCR3 antagonist activity” (Schering Corporation, priority 2005, dated 2011).

pIC50: −log10 of the molar value.

In the experiment the target is T1, human CXCR3 (N-delta 4) (Homo sapiens, UniProt P49682).
T1 construct: CD8 leader (N); Flag; expressed in transfected cells; membranes prepared
T1 sequence (P49682 5-368 limits assumed): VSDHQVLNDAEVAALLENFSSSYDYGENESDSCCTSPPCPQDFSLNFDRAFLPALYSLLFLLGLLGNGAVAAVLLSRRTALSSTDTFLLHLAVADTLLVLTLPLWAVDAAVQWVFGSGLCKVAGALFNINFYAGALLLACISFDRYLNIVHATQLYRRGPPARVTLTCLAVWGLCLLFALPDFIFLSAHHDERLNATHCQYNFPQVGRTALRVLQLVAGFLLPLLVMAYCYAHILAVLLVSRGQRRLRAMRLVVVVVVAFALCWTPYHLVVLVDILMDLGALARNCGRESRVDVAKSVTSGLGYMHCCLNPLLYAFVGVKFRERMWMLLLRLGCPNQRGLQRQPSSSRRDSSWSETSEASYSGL
As to the kind of experiment: Human CXCR3 (N-delta 4) Scintillation Proximity Assay (SPA), [125I] IP-10 binding to Ba/F3-hCXCR3 membranes. The following applies: IC50 rating, Table 1; read-out: IC50. In general terms: Scintillation proximity formats need no separation of bound from free tracer.
Turning to `CC[C@H]1CN(c2nc(N)c(C(N)=O)nc2Cl)CCN1C1CCN(C(=O)c2ccc(Cl)cc2CN2Cc3ccccc3C2)CC1` [compound 325], the pIC50 is less than 7.00.

For `CC[C@H]1CN(c2nc(N)c(C(=O)NCCO)nc2Cl)CCN1C1CCN(C(=O)c2ccc(Cl)cc2OCCN)CC1` [compound 326], the negative logarithm of the IC50 (pIC50) was less than 7.00.

For the molecule `CC[C@H]1CN(c2nc(N)c(C(=O)NCCOCCO)nc2Cl)CCN1C1CCN(C(=O)c2ccc(Cl)cc2)CC1` [compound 327], the pIC50 was less than 7.00.

With `CC[C@H]1CN(c2nc(N)c(C(=O)N[C@@H](CO)C(C)O)nc2Cl)CCN1C1CCN(C(=O)c2ccc(Cl)cc2)CC1` (stereo partly drawn) [compound 328], the pIC50 was less than 7.00.

For the molecule `CC[C@H]1CN(c2nc(N)c(C(=O)N[C@H](CO)C(C)C)nc2Cl)CCN1C1CCN(C(=O)c2ccc(Cl)cc2)CC1` [compound 329], the negative-log IC50 (pIC50) was less than 7.00.

As for `CC[C@H]1CN(c2nc(N)c(C(=O)NC)nc2Cl)CCN1C1CCN(C(=O)c2ccc(Cl)cc2N)CC1` [compound 330], the negative logarithm of the IC50 (pIC50) was greater than 7.60.

For `CC[C@H]1CN(c2nc(N)c(C(=O)NC)nc2Cl)CCN1C1CCN(C(=O)c2ccc(Br)cc2)CC1` [compound 331], the negative-log IC50 (pIC50) was greater than 7.60.

In the case of `CCNC(=O)c1nc(Cl)c(N2CCN(C3CCN(C(=O)c4ccc(Cl)cc4)CC3)[C@@H](CC)C2)nc1N` [compound 332], the pIC50 is greater than 7.60.

Consider `CC[C@H]1CN(c2nc(N)c(C(=O)NC)nc2Cl)CCN1C1CCN(C(=O)c2ccc(Br)c(F)c2)CC1` [compound 333], for which the negative-log IC50 (pIC50) is greater than 7.60.

Consider `CC[C@H]1CN(c2nc(N)c(C(=O)NCCO)nc2Cl)CCN1C1CCN(C(=O)c2ccc(Cl)cc2)CC1` [compound 334], for which the pIC50 is greater than 7.60.

For the molecule `CC[C@H]1CN(c2nc(N)c(C(=O)N[C@H](C)CO)nc2Cl)CCN1C1CCN(C(=O)c2ccc(Cl)cc2)CC1` [compound 335], the pIC50 was greater than 7.60.

With `CC[C@H]1CN(c2nc(N)c(C(=O)NC)nc2Cl)CCN1C1CCN(C(=O)c2ccc(Cl)c(F)c2)CC1` [compound 336], the negative logarithm of the IC50 (pIC50) was greater than 7.60.

`CCC(O)CNC(=O)c1nc(Cl)c(N2CCN(C3CCN(C(=O)c4ccc(Cl)cc4)CC3)[C@@H](CC)C2)nc1N` (stereo partly drawn) [compound 337]: the pIC50 is greater than 7.60.

Consider `CC[C@H]1CN(c2nc(N)c(C(=O)NC[C@@H](C)O)nc2Cl)CCN1C1CCN(C(=O)c2ccc(Cl)cc2)CC1` [compound 338], for which the pIC50 was greater than 7.60.

Regarding `CC[C@H]1CN(c2nc(N)c(C(=O)NCCO)nc2Cl)CCN1C1CCN(C(=O)c2ccc(Cl)cc2N)CC1` [compound 339], the negative-log IC50 (pIC50) was greater than 7.60.

Turning to `CC[C@H]1CN(c2nc(N)c(C(=O)NC)nc2Cl)CCN1C1CCN(C(=O)c2ccc(C#N)cc2)CC1` [compound 340], the pIC50 was greater than 7.60.

Regarding `CC[C@H]1CN(c2nc(N)c(C(=O)NC)nc2Cl)CCN1C1CCN(C(=O)c2ccc(Cl)cc2C)CC1` [compound 341], the negative logarithm of the IC50 (pIC50) was 7.00 to 7.60.

Take `CC[C@H]1CN(c2nc(N)c(C(=O)NC)nc2Cl)CCN1C1CCN(C(=O)c2ccc(Br)cc2F)CC1` [compound 342]: the negative logarithm of the IC50 (pIC50) was 7.00 to 7.60.

In the case of `CC[C@H]1CN(c2nc(N)c(C(=O)NC)nc2Cl)CCN1C1CCN(C(=O)c2ccc(Cl)cc2O)CC1` [compound 343], the pIC50 is 7.00 to 7.60.

With `CC[C@H]1CN(c2nc(N)c(C(=O)NCCO)nc2Cl)CCN1C1CCN(C(=O)c2ccc(Cl)cc2C(C)C#N)CC1` (stereo partly drawn) [compound 344], the negative-log IC50 (pIC50) is 7.00 to 7.60.

`CC[C@H]1CN(c2nc(N)c(C(=O)NCCO)nc2Cl)CCN1C1CCN(C(=O)c2cc(F)c(F)cc2N)CC1` [compound 345]: the negative logarithm of the IC50 (pIC50) is 7.00 to 7.60.

`CC[C@H]1CN(c2nc(N)c(C(=O)NCCO)nc2Cl)CCN1C1CCN(C(=O)c2ccc(C#CC(C)(C)O)cc2)CC1` [compound 346]: the pIC50 is 7.00 to 7.60.

With `CC[C@H]1CN(c2nc(N)c(C(=O)NCCO)nc2Cl)CCN1C1CCN(C(=O)c2ccc(Cl)cc2CCNS(C)(=O)=O)CC1` [compound 347], the pIC50 was 7.00 to 7.60.

On to `CC[C@H]1CN(c2nc(N)c(C(=O)NCCO)nc2Cl)CCN1C1CCN(C(=O)c2ccc(F)c(F)c2N)CC1` [compound 348], for which the pIC50 was 7.00 to 7.60.

Take `CC[C@H]1CN(c2nc(N)c(C(N)=O)nc2Cl)CCN1C1CCN(C(=O)c2ccc(Cl)cc2)CC1` [compound 349]: the pIC50 is 7.00 to 7.60.

In the case of `CC[C@H]1CN(c2nc(N)c(C(=O)NC)nc2Cl)CCN1C1CCN(C(=O)c2ccc(OC(F)(F)F)cc2)CC1` [compound 350], the pIC50 was 7.00 to 7.60.

For `CC[C@H]1CN(c2nc(N)c(C(=O)NCCO)nc2Cl)CCN1C1CCN(C(=O)c2ccc(F)c(F)c2F)CC1` [compound 351], the pIC50 is 7.00 to 7.60.

As to `CC[C@H]1CN(c2nc(N)c(C(=O)NCCO)nc2Cl)CCN1C1CCN(C(=O)c2ccc(Cl)cc2CCNC(C)=O)CC1` [compound 352], the pIC50 was less than 7.00.

As to `CC[C@H]1CN(c2nc(N)c(C(=O)NC)nc2Cl)CCN1C1CCN(C(=O)c2ccc(-n3cccn3)cc2)CC1` [compound 353], the pIC50 was less than 7.00.

For `CC[C@H]1CN(c2nc(N)c(C(=O)NC)nc2Cl)CCN1C1CCN(C(=O)c2ccc(-c3cnco3)cc2)CC1` [compound 354], the pIC50 was less than 7.00.

`CC[C@H]1CN(c2nc(N)c(C(=O)NCCN/C(N)=N/C#N)nc2Cl)CCN1C1CCN(C(=O)c2ccc(Cl)cc2)CC1` [compound 355]: the pIC50 is less than 7.00.

As for `CC[C@H]1CN(c2nc(N)c(C(=O)NC[C@@H](O)CO)nc2Cl)CCN1C1CCN(C(=O)c2ccc(Cl)cc2)CC1` [compound 356], the pIC50 is less than 7.00.

On to `CC[C@H]1CN(c2nc(N)c(C(N)=O)nc2Cl)CCN1C1CCN(C(=O)c2ccc(Cl)cc2CC(N)=O)CC1` [compound 357], for which the negative-log IC50 (pIC50) was less than 7.00.

In the case of `CC[C@H]1CN(c2nc(N)c(C(=O)NN)nc2Cl)CCN1C1CCN(C(=O)c2ccc(Cl)cc2)CC1` [compound 358], the negative logarithm of the IC50 (pIC50) was less than 7.00.

For `CC[C@H]1CN(c2nc(N)c(C(=O)NC[C@H](O)CO)nc2Cl)CCN1C1CCN(C(=O)c2ccc(Cl)cc2)CC1` [compound 359], the negative-log IC50 (pIC50) was less than 7.00.

In the case of `CC[C@H]1CN(c2nc(N)c(C(=O)NCCO)nc2Cl)CCN1C1CCN(C(=O)c2ccc(F)c(F)c2NCc2ccccc2)CC1` [compound 360], the negative logarithm of the IC50 (pIC50) was less than 7.00.

For the molecule `CC[C@H]1CN(c2nc(N)c(C(=O)NCCO)nc2Cl)CCN1C1CCN(C(=O)c2ccc(OC(F)(F)F)cc2O)CC1` [compound 361], the pIC50 was less than 7.00.

For `CC[C@H]1CN(c2nc(N)c(C(=O)NCCO)nc2Cl)CCN1C1CCN(C(=O)c2ccc(Cl)cc2OC)CC1` [compound 362], the pIC50 is less than 7.00.

Take `CC[C@H]1CN(c2nc(N)c(C(=O)NCCO)nc2Cl)CCN1C1CCN(C(=O)c2cc(F)c(F)cc2NC(=O)c2cc(F)c(F)cc2N)CC1` [compound 363]: the pIC50 is less than 7.00.

On to `CC[C@H]1CN(c2nc(N)c(C(=O)NC)nc2Cl)CCN1C1CCN(C(=O)c2ccc(Cl)c(NS(C)(=O)=O)c2)CC1` [compound 364], for which the pIC50 was less than 7.00.

As for `CC[C@H]1CN(c2nc(N)c(C(=O)NC)nc2Cl)CCN1C1CCN(C(=O)c2ccc(Cl)c(N)c2)CC1` [compound 365], the negative logarithm of the IC50 (pIC50) was less than 7.00.

As to `CC[C@H]1CN(c2nc(N)c(C(=O)NC)nc2Cl)CCN1C1CCN(C(=O)c2ccc(Cl)cc2NC)CC1` [compound 366], the pIC50 is less than 7.00.

For `CC[C@H]1CN(c2nc(N)c(C(=O)NC)nc2Cl)CCN1C1CCN(C(=O)c2c(C)cc(OCc3ccccc3)cc2C)CC1` [compound 367], the negative logarithm of the IC50 (pIC50) was less than 7.00.

With `CC[C@H]1CN(c2nc(N)c(C(=O)NC)nc2Cl)CCN1C1CCN(C(=O)C2Cc3ccccc3C2)CC1` [compound 368], the pIC50 is less than 7.00.

Take `CC[C@H]1CN(c2nc(N)c(C(=O)NC)nc2Cl)CCN1C1CCN(C(=O)C2(N)CCc3ccccc3C2)CC1` (stereo partly drawn) [compound 369]: the pIC50 was less than 7.00.

In the case of `CC[C@H]1CN(c2nc(N)c(C(=O)NC)nc2Cl)CCN1C1CCN(C(=O)C2CCc3ccccc3C2)CC1` (stereo partly drawn) [compound 370], the pIC50 is greater than 7.60.

As for `CC[C@H]1CN(c2nc(N)c(C(=O)NC)nc2Cl)CCN1C1CCN(C(=N)c2ccc(Cl)cc2)CC1` [compound 371], the pIC50 is greater than 7.60.

With `CC[C@H]1CN(c2nc(N)c(C(=O)OC)nc2Cl)CCN1C1CCN(C(=O)c2ccc(Cl)cc2C(C)C#N)CC1` (stereo partly drawn) [compound 372], the negative logarithm of the IC50 (pIC50) was less than 7.00.

As to `CC[C@H]1CN(c2nc(N)c(C(=O)NNC(C)=O)nc2Cl)CCN1C1CCN(C(=O)c2ccc(Cl)cc2)CC1` [compound 373], the pIC50 was less than 7.00.

With `CC[C@H]1CN(c2nc(N)c(C(=O)NCCO[Si](C(C)C)(C(C)C)C(C)C)nc2Cl)CCN1C1CCN(Cc2ccc(F)c(F)c2N2CC[C@H](O)C2)CC1` [compound 374], the negative logarithm of the IC50 (pIC50) was less than 7.00.

Take `CC[C@H]1CN(c2nc(N)c(C(N)=O)nc2Cl)CCN1C1CCN(Cc2ccc(Cl)cc2C2COC(=O)O2)CC1` (stereo partly drawn) [compound 375]: the pIC50 is 7.00 to 7.60.

For `CC[C@H]1CN(c2nc(N)c(C(N)=O)nc2Cl)CCN1C1CCN(Cc2ccc(Cl)cc2NC(=O)C(C)O)CC1` (stereo partly drawn) [compound 377], the pIC50 was 7.00 to 7.60.

As for `CC[C@H]1CN(c2nc(N)c(C(N)=O)nc2Cl)CCN1C1CCN(Cc2ccc(Cl)cc2C(O)C(=O)N(C)C)CC1` (stereo partly drawn) [compound 378], the pIC50 is greater than 7.60.

For `CC[C@H]1CN(c2ncc(C(N)=O)nc2OC)CCN1C1CCN(C(=O)c2ccc(Cl)cc2)CC1` [compound 379], the negative-log IC50 (pIC50) is less than 7.00.

Turning to `CC[C@H]1CN(c2nc(N)c(C(N)=O)nc2Cl)CCN1C1CCN(Cc2ccc(Cl)cc2C2NC(=O)N(C)C2=O)CC1` (stereo partly drawn) [compound 380], the pIC50 is less than 7.00.

On to `CC[C@H]1CN(c2nc(N)c(C(N)=O)nc2Cl)CCN1C1CCN(Cc2ccc(Cl)cc2C(N)C(N)=O)CC1` (stereo partly drawn) [compound 381], for which the negative-log IC50 (pIC50) was 7.00 to 7.60.

Turning to `CC[C@H]1CN(c2nc(N)c(C(N)=O)nc2Cl)CCN1C1CCN(Cc2ccc(Cl)cc2C(NC(C)=O)C(N)=O)CC1` (stereo partly drawn) [compound 382], the pIC50 is less than 7.00.

As usually defined, the pIC50 is −log10 of the IC50, conventionally taken in molar units.
